Test results reported in patent US4031218A, “7-(2,3-Dihydroxypropyl-1,3-di-n-propylxanthine and a pharmaceutical composition containing same useful as a bronchial muscle relaxant” (Mallinckrodt, Inc., priority 1976, dated 1977).
Entries after “also recorded” stand apart in the source; their conditions may differ.

What was measured:
[1] = U.S. Pat. No. 2,756,229, in comparison with theophylline; cited from earlier work
rats = test: Acute oral diuretic evaluation in rats; format: in vivo, Sprague Dawley rats; details: relative to theophylline, molar basis
Method: 1. Acute Oral Evaluation in Rats
The oral diuretic effect of each compound was estimated in rats by a modification of the method described by Lipschitz et al. (J. Pharmacol. Exp. Ther. 79:97, 1943). Male Sprague Dawley rats (Carworth) weighing between 153 and 220 gms were fasted overnight. Groups of five animals each were administered three appropriate logarithmically spaced doses of each compound dissolved in saline in a constant volume dose of 25 ml/kg via an oral feeding needle. Controls received the same dose of only saline. The rats were then placed in individual metabolism cages and deprived of food and water for the remainder of the experiment. At the end of six hours, each rat was forced to expel urine in the bladder by pulling on the base of the tail. Parameters measured included urine volume, pH, and sodium and potassium excretion as measured by atomic absorption analysis. Six hour values were averaged for each dose of compound and for controls and were compared accordingly.

dog hind limb = test: Dog hind limb perfusion preparation (vasodilator); format: in vivo; details: intra-arterial; relative to theophylline, molar basis
Source text: 1. Dog Hind Limb Perfusion Preparation
A total of 12 adult mongrel dogs of either sex were used to assess the direct intra-arterial dilating capacity of the five experimental compounds. […] This was accomplished with a Harvard Variable Speed Peristaltic Pump after proximal and distal cannualtion of the femoral artery. Changes in arterial vascular resistance were reflected as changes in perfusion pressure as measured from a T-tube on the distal side of the pump. Mean systemic arterial pressure was also recorded from the contralateral femoral artery. Drug solutions, dissolved in saline, were injected into the arterial blood supply immediately prior to entering the cannulated distal artery. Logarithmically increasing doses were given at 10-minute intervals and responses were recorded.

[2] = tested on: histamine-induced bronchospasm; test: Protection against histamine aerosol in guinea pigs (in vivo bronchodilator); parameters: species or system guinea pig; details: relative to theophylline, molar basis; for Bronchodilator activity, In-Vivo I.P. (G. Pig), relative molar activity: 15-20 min after injection; for Bronchodilator activity, In-Vivo, Oral (G. Pig), relative molar activity: 35-40 min after gavage
Method: With the exception of theophylline, all compounds were administered as the free base dissolved or suspended in appropriate aqueous vehicles. […] Final comparisons were always based on the calculated dose of theophylline. Because of obvious differences in molecular weights, all compounds were compared on a molar basis rather than on absolute weight.
2. Protection Against Histamine Aerosol
Adult Camm English Short Hair male albino guinea pigs (270-600 gm.) were singularly confined in an inverted glass aquarium and continuously exposed to a finely atomized mist of 0.5% histamine diphosphate produced by a Devilbiss No. 40 nebulizer and compressed air at 300 mm. Hg. pressure. The period from the start of aerosolization until the appearance of ultimate collapse or convulsions is defined as the preconvulsive time and is relatively constant in the same animal. Preconvulsive times were determined for each dose of each compound in at least six guinea pigs. Control preconvulsive times were obtained three days prior to and three days following drug administration. Percent protection afforded by each compound was calculated by the formula:
% Protection = (1- C/T) × 100
where C is the average control preconvulsive time and T is the test preconvulsive time after compound administration, both in seconds.
The PD50 of each experimental compound was determined after both intraperitoneal and oral administration. A minimum of 3 dose levels and 6 animals per dose were employed to obtain meaningful dose-response data. Protection was assessed 15-20 minutes after intraperitoneal injection and 35-40 minutes after oral gavage with a flexible plastic tube. Animals were fasted overnight prior to oral dosing. All compounds were administered in aqueous solution in concentrations commensurate to a proper volume dose. Guinea pigs were utilized between 1 and 3 times but no animal received the same compound twice in succession with a minimum of 3 days rest between doses.

isolated rabbit heart = test: Isolated rabbit heart preparation (Langendorff); format: cell-based; details: mean for myocardial contractile force, heart rate, coronary flow; relative to theophylline
Method: 2. Isolated Rabbit Heart Preparation
In-vitro cardiodynamic activity of each compound except dyphylline was determined on the spontaneously beating isolated rabbit heart by the Langendorff method as modified by Anderson and Craver (J. Pharmacol. Exp. Ther., 93:135, 1948). After securing the extracted heart's ascending aorta to the apparatus, the coronaries were continuously perfused with aerated Chenoweth's solution (Chenoweth and Koelle, J. Lab. Clin. 31:600, 1946) maintained at a constant pressure-head and temperature of 38° C. The effects of logarithmically increasing doses of each compound were determined on contractile force, heart rate, and coronary flow. Drugs were dissolved in minimal volumes of Chenoweth's solution and injected into the downspout containing perfusate at 5-10 minute intervals.

human bronchodilator = test: Estimated human bronchodilator dose equivalent to recommended theophylline dose; details: based on recommended theophylline dose and relative bronchodilator activities
Source text: Experimental results are summarized in Table I wherein pharmacologic and toxicologic activities relative to that of theophylline are expressed on a molar basis.
^a - Dose: Based on the recommended dose for theophylline and the
relative activities in the bronchodilator experiments.

[3] = prior art statement; listed as dyphylline; cited from earlier work
[4] = prior art statement; cited from earlier work

| SMILES | Diuretic activity in words (prior art) [1] | Oral Diuretic (Rats), relative molar activity (rats) | Vasodilator, HLPP (Dogs), relative molar activity (dog hind limb) | Bronchodilator activity, In-Vivo I.P. (G. Pig), relative molar activity [2] | Bronchodilator activity, In-Vivo, Oral (G. Pig), relative molar activity [2] | In-Vitro; MCF, HR, CF (Rabbit Heart), mean relative molar activity (isolated rabbit heart) | Estimated Human Bronchodilator Dose (HBD), per 70 kg (human bronchodilator) [mg/70 kg] | Estimated Human Bronchodilator Dose (HBD), per kg (human bronchodilator) [mg/kg] | Bronchodilator activity / potency in words (prior art) [3] | Water solubility in words (prior art) [4] |
| --- | --- | --- | --- | --- | --- | --- | --- | --- | --- | --- |
| CCCn1c(=O)c2c(ncn2CC(C)O)n(CCC)c1=O (stereo not shown) [III, 7-(2-hydroxypropyl) 1,3-di-n-propylxanthine] | strong diuretics | 7.29 | 0.76 | 3.26 | 3.30 | 1.40 | 99 | 1.4 | – | – |
| Cn1c(=O)c2c(ncn2CC(O)CO)n(C)c1=O (stereo not shown) [Compound II, 7-(2,3-dihydroxypropyl) 1,3-dimethylxanthine] | – | 0.71 | 0.06 | 0.12 | 0.13 | – | 2353 | 33.6 | less bronchodilator potency than theophylline; also recorded: markedly decreases overall potency | high water solubility |
| CCCn1c(=O)c2c(ncn2CC(O)CO)n(CCC)c1=O (stereo not shown) [Compound V, 7-(2,3-dihydroxypropyl)-1,3-di-n-propylxanthine] | – | 1.05 | 0.40 | 1.56 | 0.75 | 0.93 | 299 | 4.3 | – | – |
| CCCn1c(=O)c2c(ncn2CCCO)n(CCC)c1=O [IV, 7-(3-hydroxypropyl)-1,3-di-n-propylxanthine] | strong diuretics | 1.48 | 1.06 | 0.94 | 0.92 | 1.81 | 347 | 5.0 | – | – |
